Data reported in patent US20250213593A1, “Use of Derivatives based on Sarsasapogenin Structure and Pharmaceutical Compositions thereof” (BEIJING PHYTOVENT PHARMACEUTICAL TECHNOLOGY CO., LTD., priority 2022, published 2025).

Tests used:
APOE−/− mutant B6J mice = assay: Cardiovascular inflammation of APOE mutant mice fed with high-fat diets; format: in vivo, mouse; conditions: oral gavage once every 2 days, high-fat diets 16 weeks
Excerpt: Experimental and analytical method: 6-week-old male APOE−/− mutant B6J mice and WT B6J mice were purchased and acclimatized in a feeding room for 2 weeks. When the mice were 8 weeks old, except for a Vehicle group and a WT group, the rest of the groups were given high-fat diets (Research Diets, D12492). When the mice were 9 weeks old, the Control group was given a 10% cyclodextrin solution, while the rest of the administration groups began to be grouped and administrated with different small molecule compounds (Embodiment 13B, Embodiment 33, Embodiment 36 and Embodiment 37) by oral gavage, at a frequency of once every 2 days. After being fed with high-fat diets for 16 weeks, the APOE mice were sacrificed and aortic arches were taken and dissected.

SOD^G93A transgenic mice = assay: Gait analysis of SOD^G93A mice; conditions: 40 mpk from Day 60, tested at Week 19; vs model group
Description: Gait analysis was a behavioral analysis method that tested motor dysfunction. The mice with motor dysfunction would have a significant reduction in stride length. Our experiments were divided into two groups, i.e., a model group and an administration group.

male SD rats, TBI model = assay: Acute traumatic brain injury (TBI) rat model; format: in vivo; conditions: 80 mpk once a day, 7 days; vs solvent control (P<0.05)
Description: • Experimental and analytical method: male SD rats were used in this experiment to establish a TBI rat model, which was randomly divided into: a solvent control group (8 rats), a test product Embodiment 13B (80 mpk, 10 rats), and a test product Embodiment 26 (80 mpk, 9 rats). After TBI surgery, drugs were administered by gavage once a day for 7 consecutive days.

[1] = system: mice with ulcerative colitis induced by 3.0% DSS; assay: DSS mouse enteritis model; format: in vivo; conditions: 80 mpk oral gavage once a day, 9 days
Excerpt: 60 mice in good health were divided into 6 groups according to body weight, with 10 mice in each group: a normal control group, a model group, a positive drug group, and groups of different test products (Embodiment 13B, Embodiment 33, and Embodiment 34, at a dosage of 80 mpk each). In addition to the normal control group, the mice in other groups were administrated with a 3.0% DSS solution to drink freely, and consecutively modeled for 8 days. The normal control group was administrated with autoclaved filtered water to drink freely. The drug was administered on the day of modeling, and a test product was administered by oral gavage according to a designed dosage, once a day for 9 consecutive days. […] On the next day after the last administration, after deep anesthesia with CO2, cardiac blood and plasma were collected, and cryopreserved at −80° C. Subsequently, the abdominal cavity was dissected, the liver was removed and cryopreserved at −80° C. Finally, the entire colon tissue was removed, the colon length was measured, photographs were taken, and the colon content was washed with normal saline after dissection along the mesenteric side and weighed.

hippocampal neurons = assay: L-cysteine-induced neuronal excitotoxicity; format: cell-based, SD rats; conditions: compound 1 μM, 24 h before inducer
How it was run: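 Primary E18-19 SD rat hippocampal neurons at DIV19 pretreated 24 h with compound (final 1 μM; AP5 100 μM positive control, DMSO negative), then exposed to L-cystine 400 μM plus NaHCO3 10 mM for 18 h. Hoechst staining; total and dead neurons counted in 6 random fields per well.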

ICR mice = assay: Sleep of mice at subthreshold hypnotic dosage of sodium pentobarbital; format: in vivo, mouse; conditions: single oral gavage, high-, medium- and low-dosage; vs blank control
Description: After adaptive feeding of mice, 50 qualified animals were selected according to their body weights and divided into 5 groups by Excel complete randomization: a blank control group, a positive control group (Diazepam), and high-, medium- and low-dosage groups of test product, with 10 animals in each group. Animals in each group should be administrated with drug solutions and vehicles. After 1 h of administration, the animals in each group were intraperitoneally injected with a maximum subthreshold dosage of sodium pentobarbital (firstly, a pre-experiment was conducted to determine a maximum subthreshold hypnotic dosage of sodium pentobarbital).

SMILES: C[C@H]1CC[C@@]2(OC1)O[C@H]1C[C@@H]3[C@H](CC[C@H]4[C@H]3CC[C@@H]3C[C@H](NC(=O)CC(=O)N5CCN(CCN(C)C)CC5)CC[C@@]34C)[C@H]1[C@@H]2C [Embodiment 13b]
- inflammatory factors IL10, IL-1β and KC/GRO in aortic vascular epithelial tissue (APOE−/− mutant B6J mice): most significant
- stride length (SOD^G93A transgenic mice): much larger
- early brain apoptosis rates (male SD rats, TBI model): significantly lower
- total apoptosis rates (male SD rats, TBI model): significantly lower
- colon length [1]: could increase the weights and lengths of the colons
- colon weight [1]: could increase the weights and lengths of the colons
- general conditions of DSS colitis mice [1]: certain improvement effects
- protective effects on L-Cystine (400 μM)-induced neuronal excitotoxicity (hippocampal neurons): protective effects
- sleep latency (ICR mice): could shorten the sleep latency of the mice, which had a certain dosage-response relationship, but no statistically significant difference
- sleep time (ICR mice): could prolong the sleep time of the mice, but there was no statistically significant difference
